Results on six molecules are retold here after publication PMC3700404 (Chemistry & biology, 2008).

For experiment [1], the target named is hCB1 K3.28(192)A mutant receptor (Homo sapiens, UniProt P21554, K192A). In words: Competitive binding assay, hCB1 K3.28. Conditions: radioligand [3H]-CP55940.
In experiment [2] the test system is C6.47(257)K, C6.47(257)I, C6.47(257)L, C6.47(257)D, and C6.47(257)Y hCB2 receptor mutants. The experiment in a line: Competitive binding assay, further C6.47. Details: species or system human. Conditions: radioligand [3H]-CP55940; data not shown.
Experiment [3] deals with hCB2 C7.38(284)S mutant receptor (Homo sapiens, UniProt P34972, C284S). In words: Affinity-labeling assay, hCB2 C7.38. The conditions noted are these: 9 nM AM-841, 1 hr, 30°C, washed.
Chain of hCB2 C7.38(284)S mutant receptor (P34972 whole entry C284S): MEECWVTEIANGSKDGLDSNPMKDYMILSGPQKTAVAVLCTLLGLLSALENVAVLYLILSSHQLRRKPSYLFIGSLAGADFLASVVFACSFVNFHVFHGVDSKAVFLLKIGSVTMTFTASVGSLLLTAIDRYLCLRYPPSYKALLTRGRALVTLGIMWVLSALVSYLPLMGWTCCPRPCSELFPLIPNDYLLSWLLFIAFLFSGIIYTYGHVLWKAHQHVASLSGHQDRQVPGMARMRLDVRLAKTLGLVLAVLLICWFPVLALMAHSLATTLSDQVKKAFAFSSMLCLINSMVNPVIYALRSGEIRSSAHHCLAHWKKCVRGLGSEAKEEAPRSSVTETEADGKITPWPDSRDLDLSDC
The target in experiment [4] is T1, WT hCB2 receptor (Homo sapiens, UniProt P34972). In words: Inhibition of forskolin-stimulated cAMP accumulation, WT hCB2 cells. Format: cell-based. The conditions noted are these: read-out: IC50, inhibition of forskolin-stimulated cAMP accumulation; HEK293 cells, 5 μM forskolin, 5 min; mean (95% CI).
T1 sequence (P34972 whole entry): as the sequence (P34972 whole entry C284S) above, with S284C counted along it
Experiment [5] concerns the target T1, WT hCB2 receptor. In words: Affinity-labeling assay.
Experiment [6] concerns the target T2, hCB2 C6.47(257)S mutant receptor (Homo sapiens, UniProt P34972, C257S). The experiment in a line: Affinity-labeling assay, hCB2 C6.47. Conditions: 9 nM AM-841, 1 hr, 30°C, washed.
For experiment [7], the target named is T3, hCB2 C6.47(257)A mutant receptor (Homo sapiens, UniProt P34972, C257A). In words: Inhibition of forskolin-stimulated cAMP accumulation, hCB2 C6.47. Format: cell-based. The conditions noted are these: read-out: IC50, inhibition of forskolin-stimulated cAMP accumulation; HEK293 cells, 5 μM forskolin, 5 min; mean (95% CI).
T3 sequence (P34972 whole entry C257A): as the sequence (P34972 whole entry C284S) above, with C257A, S284C counted along it
Experiment [8] has as its target T2, hCB2 C6.47(257)S mutant receptor. The description is as above. Conditions: read-out: IC50, inhibition of forskolin-stimulated cAMP accumulation; HEK293 cells, 5 μM forskolin, 5 min; mean (95% CI). It counts as cell-based. For orientation: Changes in cAMP serve as a functional read-out for many G protein-coupled receptors.
Experiment [9] addresses T3, hCB2 C6.47(257)A mutant receptor. In words: Competitive binding assay, hCB2 C6.47. The conditions noted are these: for enhancement of ability to displace CP55940 versus WT hCB2 / increase in affinity over WT hCB2 receptor: C6.47(257)A vs WT; for Ki: mean (95% CI).
The target of experiment [10] is hCB2 K3.28(109)A mutant receptor (Homo sapiens, UniProt P34972, K109A). In words: Competitive binding assay, hCB2 K3.28. The conditions noted are these: radioligand [3H]-CP55940; mean (95% CI).
Chain of hCB2 K3.28(109)A mutant receptor (P34972 whole entry K109A): as the sequence (P34972 whole entry C284S) above, with K109A, S284C counted along it
The target of experiment [11] is hCB2 C7.42(288)S mutant receptor (Homo sapiens, UniProt P34972, C288S). In words: Affinity-labeling assay, hCB2 C7.42. Conditions: 9 nM AM-841, 1 hr, 30°C, washed.
Chain of hCB2 C7.42(288)S mutant receptor (P34972 whole entry C288S): as the sequence (P34972 whole entry C284S) above, with S284C, C288S counted along it
Experiment [12] deals with T3, hCB2 C6.47(257)A mutant receptor. In words: Affinity-labeling assay, hCB2 C6.47. The conditions noted are these: 9 nM AM-841, 1 hr, 30°C, washed.
Experiment [13] has as its target T2, hCB2 C6.47(257)S mutant receptor. The experiment in a line: Competitive binding assay, hCB2 C6.47. The conditions noted are these: for Ki: mean (95% CI); for increase in affinity over WT hCB2 receptor: C6.47(257)S vs WT.
The subject of experiment [14] is CB2 receptor S7.39A mutant. Conditions: ref Rhee (2002); cited from earlier work.
The test system of experiment [15] is C6.47(257)K, C6.47(257)I, C6.47(257)L, C6.47(257)D or C6.47(257)Y mutant hCB2 receptors. In words: Saturation-binding assay, further C6.47. Details: species or system human. Conditions: data not shown.

Molecules are shown by their SMILES.

T2 sequence (P34972 whole entry C257S): as the sequence (P34972 whole entry C284S) above, with C257S, S284C counted along it
Chain of hCB1 K3.28(192)A mutant receptor (P21554 whole entry K192A): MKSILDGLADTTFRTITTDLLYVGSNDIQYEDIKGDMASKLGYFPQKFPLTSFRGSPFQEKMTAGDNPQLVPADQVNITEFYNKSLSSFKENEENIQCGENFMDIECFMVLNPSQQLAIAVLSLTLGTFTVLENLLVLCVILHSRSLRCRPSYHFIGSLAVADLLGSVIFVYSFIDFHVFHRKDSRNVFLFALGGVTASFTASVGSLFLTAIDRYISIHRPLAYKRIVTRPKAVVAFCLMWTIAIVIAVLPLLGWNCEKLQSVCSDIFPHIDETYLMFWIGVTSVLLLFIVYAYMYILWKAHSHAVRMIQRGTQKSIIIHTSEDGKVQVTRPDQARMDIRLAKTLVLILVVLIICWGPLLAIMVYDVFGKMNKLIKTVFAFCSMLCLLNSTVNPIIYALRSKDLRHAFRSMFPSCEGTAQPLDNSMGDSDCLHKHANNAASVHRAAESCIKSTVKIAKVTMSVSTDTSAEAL

As a reminder, the Ki is the equilibrium dissociation constant of an inhibitor or competing ligand from its target. The low end stands for tighter binding, the high end for weaker binding. For orientation: IC50 means the concentration at which inhibition is half-maximal. In the case of `CC(C)(CCCCCCN=C=S)c1cc(O)c2c(c1)OC(C)(C)C1CCC(CO)CC21` (single isomer, unassigned; (-)) [AM-841, (−)-7′-isothiocyanato-11-hydroxy-1′,1′-di-methylheptylhexahydrocannabinol], the Ki entry in experiment [1] is “No Specific Binding”; in experiment [9] (radioligand [3H]-CP55940), 0.71 nM; in experiment [9] (radioligand [3H]-WIN55212-2), 0.7 nM; in experiment [10] it was 2.31 nM; in experiment [13] (radioligand [3H]-CP55940) it was 1.68 nM; in [13] (radioligand [3H]-WIN55212-2) it was 1.5 nM. In [2], the “specific binding in competitive binding assay” value is “no specific binding”. Also, the “decrease in [3H]-CP55940 binding after AM-841 pretreatment” value is ~ 80% in experiment [3]; ~ 80% at WT hCB2 receptor [5] (9 nM AM-841, 1 hr, 30°C, washed); ~ 80% in [11]. Besides, the half-maximal inhibitory concentration (IC50) at WT hCB2 receptor [4] amounted to 0.079 nM; in [7], 6.01 nM; in [8] it was 2.88 nM. Moreover, at WT hCB2 receptor [5] (9 nM AM-841, 1 hr, 30°C, then extensive wash-out, control membranes 1.05), the “Bmax for [3H]-CP55940 binding after preincubation” value is listed as 0.22 pmol/mg. Further, the “irreversible AM-841 binding” value at WT hCB2 receptor [5] (data not shown) is on record as ~ 80%. Besides, the “decrease in [3H]-CP55940 Bmax after AM-841 pretreatment” value in experiment [6] and in [12] was “no distinct decrease” throughout. The “enhancement of ability to displace CP55940 versus WT hCB2” value in experiment [9] (radioligand [3H]-CP55940) is “at least 2 fold”. Moreover, the “increase in affinity over WT hCB2 receptor” value (“increase in affinity” for short) in experiment [9] (radioligand [3H]-WIN55212-2) and in experiment [13] (radioligand [3H]-WIN55212-2) was 3–6 fold each time.
For `CN1CCCCC1Cn1cc(C(=O)c2ccccc2I)c2ccccc21` (centres unmarked) [AM-2233], in experiment [9] (radioligand [3H]-WIN55212-2), the “increase in affinity” value is on record as “over 11 fold” and the affinity, expressed as Ki, was 0.5 nM. In [13] (radioligand [3H]-WIN55212-2), the “increase in affinity” value was “over 11 fold” and the Ki turned out to be 0.8 nM.
As to `CC(C)(CCCCCCBr)c1cc(O)c2c(c1)OC(C)(C)C1CCC(CO)CC21` (centres unmarked) [AM-4043], in experiment [9] (radioligand [3H]-CP55940), the “enhancement of ability to displace CP55940 versus WT hCB2” value is recorded as “at least 2 fold”. For the same molecule, the inhibitory constant (Ki) was 0.88 nM in experiment [9] (radioligand [3H]-CP55940), 0.8 nM in experiment [9] (radioligand [3H]-WIN55212-2), 1.51 nM in experiment [13] (radioligand [3H]-CP55940) and 1.4 nM in experiment [13] (radioligand [3H]-WIN55212-2).
In the case of `CCCCCCC(C)(C)c1cc(O)c2c(c1)OC(C)(C)[C@@H]1CC[C@@H](CO)C[C@@H]21` [AM-4056], the Ki entry in experiment [1] was “No Specific Binding”; in [9] (radioligand [3H]-CP55940), 1.03 nM; in experiment [9] (radioligand [3H]-WIN55212-2) it was 0.5 nM; in [10] it was 1.14 nM; in [13] (radioligand [3H]-CP55940), 1.52 nM; in [13] (radioligand [3H]-WIN55212-2), 1.2 nM. For the same molecule, the half-inhibitory concentration (IC50) on WT hCB2 receptor [4] worked out at 3.27 nM; in experiment [7] it was 2.62 nM; in [8], 8.82 nM. Also, the “enhancement of ability to displace CP55940 versus WT hCB2” value in experiment [9] (radioligand [3H]-CP55940) is “at least 2 fold”.
In the case of `CCCCCCC(C)(C)c1cc(O)c2c(c1)OC(C)(C)[C@@H]1CC[C@@H](CO)C[C@@H]21` [HU-243], the “loss of affinity in S7.39A mutant” value in experiment [14] is on record as “over 10 fold”.
As to `CCCCCCC(C)(C)c1ccc([C@@H]2C[C@H](O)CC[C@H]2CCCO)c(O)c1` [[^3H]-CP55940], in experiment [15], the “specific binding of radioligand” value is listed as “no specific binding”.
